Experimental data as given in US11666594B2, “Antibody-drug conjugates comprising a cyclic dinucleotide” (TAKEDA PHARMACEUTICAL COMPANY LIMITED, priority 2016, dated 2023).
Where a name gives a salt, the structure may show the parent alone.

Columns and labels:
[1] = tested on: IRF3 phosphorylation in FaDu cell; experiment: Phosphorylated IRF3 protein detection in FaDu cell; format: cell-based, human; conditions: at 30 μM; 6 hr; 2′,3′-cGAMP 30 μM = 100%
Description: Human larynx cancer cell line FaDu cell (ATCC) was seeded, the medium was replaced with serum free medium one day after the seeding. After the replacement, the cell was cultured for one day, and to the cell were added the natural ligand 2′,3′-cGAMP (the final concentration; 30 μM) and test compound (the final concentration; 15 μM or 30 μM). 6 hr after the addition, the cell was washed with PBS, the cell extract was prepared, and the phosphorylated IRF3 protein was detected by ELISA method or Western blotting method. The IRF3 protein phosphorylation activity of the test compound was calculated when the value in the sample with adding the natural ligand 2′,3′-cGAMP at the final concentration of 30 μM was considered as 100%.

WT STING = WT STING (Homo sapiens (Human), UniProt Q86WV6, H232R); experiment: Reporter gene assay (2): ISRE NanoLuc reporter in 293T cells, with digitonin, WT STING; format: cell-based; conditions: with digitonin; read-out: STING-293T cell EC50 (μM) Reporter with digitonin (B)
Sequence of WT STING (Q86WV6 whole entry H232R): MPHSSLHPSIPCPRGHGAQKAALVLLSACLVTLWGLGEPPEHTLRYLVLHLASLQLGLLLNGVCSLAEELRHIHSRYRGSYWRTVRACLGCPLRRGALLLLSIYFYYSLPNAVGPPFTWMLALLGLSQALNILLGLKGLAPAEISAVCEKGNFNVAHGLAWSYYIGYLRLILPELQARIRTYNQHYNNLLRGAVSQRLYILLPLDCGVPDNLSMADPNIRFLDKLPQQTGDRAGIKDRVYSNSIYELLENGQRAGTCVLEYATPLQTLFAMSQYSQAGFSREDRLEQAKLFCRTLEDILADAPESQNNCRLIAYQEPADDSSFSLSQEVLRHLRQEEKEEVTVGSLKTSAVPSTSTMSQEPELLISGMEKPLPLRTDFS
Description: The culture solution was removed, and the test compound diluted with assay buffer (50 mM HEPES pH 7.0, 100 mM KCl, 3 mM MgCl2, 85 mM Sucrose, 0.1 mM DTT, 0.2% BSA, 1 mM ATP, 0.1 mM GTP, 10 μg/ml Digitonin) was added thereto by 15 μL/well. […] Luminescence signals derived from firefly luciferase and NanoLuc Luciferase were each measured using EnVision (PerkinElmer, Waltham, Mass., US) according to Nano-Glo Dual-Luciferase Reporter Assay System (Promega, Fitchburg, Wis., US) protocol. The ratio of the count of NanoLuc Luciferase divided by the count of firefly luciferase was used for culculation.

THP1-Dual cells = experiment: THP-1 Dual Lucia reporter gene assay; format: cell-based, human; conditions: 20 hours; read-out: THP-1 Dual cell EC50 (μM) Reporter
Description: THP1-Dual™ cells (InvivoGen #thpd-nfis) were derived from the human THP-1 monocyte cell line by stable integration of the Lucia luciferase gene, a secreted luciferase reporter gene, under the control of an ISG54 (interferon-stimulated gene) minimal promoter in conjunction with five interferon (IFN)-stimulated response elements. On the day of experiment, the cells were plated to a black, 384-well plate (Corning 356697) at 7500 cells/25 μL per well density in growth media (RPMI 1640, 2 mM L-glutamine, 25 mM HEPES, 10% heat-inactivated fetal bovine serum, 100 μg/mL Normocin™, 100 U/mL-100 μg/mL Pen-Strep, 10 μg/mL of blasticidin, and 100 μg/mL of Zeocin). The cell plates were dosed with 62.5 nL of the testing compounds, and then incubated at 37° C. for 20 hours. At the end of the incubation, 15 μL/well of the QUANTI-Luc™ (InvivoGen #rep-qlc1) were added, and luminescence was measured immediately using the LeadSeeker.

[2] = Human plasma stability assay; format: in vitro ADME; conditions: elimination rate constant k; heparinized human plasma, 37° C., up to 24 hours
Description: The compound was incubated in heparinized human plasma at 37° C. for 0, 1, 2, 4, 8 and 24 hours, and the change in compound concentration was measured by LC/MS/MS method. The elimination rate constant (=k(/h)) was calculated based on the fitted curve assuming the exponential decrease of concentration as follows; concentration at time x=initial concentration*exp(−k*x).

CT-26 mouse tumor cells = experiment: Anti-tumor effect in colon carcinoma CT-26 syngeneic mice model; format: in vivo; conditions: CT-26, Balb/C mice; intravenous, q3dx3; Ex3a 30 mg/kg, Ex14 1.0 mg/kg
Description: (§1) 8×10^4 B^16F10 and 2×10^5 CT-26 mouse tumor cells were subcutaneously implanted in the flank of female C57BL/6 (B16F10) and Balb/C (CT-26) mice (n=7 per group). Vehicle (1×PBS), compound Ex3a (30 mg/kg) or Ex14 (1.0 mg/kg) were intravenously administered (final volume of […]) to tumor-bearing mice once the tumor volume has reached 100 mm^3 (Day 0). Vehicle, Ex3a or Ex14 were given every 3 days for a total of 3 doses (q3dx3). Tumor and body weight measurements were taken three times per week using vernier calipers and mettler scale, respectively. Tumor volumes were determined by multiplying the square of the width (‘W’), measured along the […] of the tumor, by one-half the length (‘L’) measured along the […] of the tumor (V=W^2×0.5 L)

B16F10 mouse tumor cells = experiment: Anti-tumor effect in B16F10 syngeneic mice model; format: in vivo; conditions: B16F10, C57BL/6 mice; intravenous, q3dx3; Ex3a 30 mg/kg, Ex14 1.0 mg/kg
Description: as §1

Row | Structure (SMILES) | activity level of test compound (IRF3 protein phosphorylation) [1] [% at 30 μM] | EC50 (WT STING) [µM] | EC50 (THP1-Dual cells) [µM] | Human plasma stability [2] [h⁻¹] | anti-tumor effect (CT-26 mouse tumor cells) | anti-tumor effect (B16F10 mouse tumor cells)
1 | Nc1ncnc2c1ncn2[C@@H]1O[C@@H]2COP(=O)(O)O[C@@H]3[C@H](O)[C@@H](COP(=O)(S)O[C@H]2[C@H]1F)O[C@H]3n1cc(F)c2c(=O)[nH]cnc21 (stereo partly drawn) [Example 2, 7-((5R,7R,8R,12aR,14R,15R,15aR,16R)-14-(6-amino-9H-purin-9-yl)-15-fluoro-10,16-dihydroxy-2,10-dioxido-2-sulfanyloctahydro-12H-5,8-methanofuro[3,2-1][1,3,6,9,11,2,10]pentaoxadiphosphacyclotetradecin-7-yl)-5-fluoro-3,7-dihydro-4H-pyrrolo[2,3-d]pyrimidin-4-one di-triethylamine salt (Optical Isomer)] | 88.7 | – | – | – | – | –
2 | Nc1ncnc2c1ncn2[C@@H]1O[C@@H]2COP(=O)(O)O[C@@H]3[C@H](O)[C@@H](COP(=O)(S)O[C@H]2[C@H]1F)O[C@H]3n1cc(F)c2c(=O)[nH]cnc21 (stereo partly drawn) [Ex3a, disodium (5R,7R,8R,2aR,14R,15R,5aR,16R)-14-(6-amino-9H-purin-9-yl)-15-fluoro-7-(5-fluoro-4-oxo-3,4-dihydro-7H-pyrrolo[2,3-d]pyrimidin-7-yl)-16-hydroxy-2-sulfidooctahydro-12H-5,8-methanofuro[3,2-1][1,3,6,9,11,2,10]pentaoxadiphosphacyclotetradecin-10-olate 2,10-dioxide] | – | 0.13 | 5.6 | 0.58 | anti-tumor effects were observed | anti-tumor effects were observed
